Source: ChEMBL document CHEMBL3779835, “Identification of an Inhibitor of the Aminoglycoside 6'-N-Acetyltransferase type Ib [AAC(6')-Ib] by Glide Molecular Docking” (Medchemcomm, 2016)
Activity calls are given as the source filed them. No cut-off for these calls is given here.

Experiments:
[1] = system: Acinetobacter baumannii; assay: Inhibition of AAC(6')-1b in amikacin-resistant Acinetobacter baumannii A155 harboring AAC(6')-1b assessed as growth inhibition at 50 uM in presence of 8 ug/ml amikacin
[2] = Mixed-noncompetitive inhibition of AAC(6')-1b (unknown origin) expressed in Escherichia coli TOP10 assessed as reduction in acetylation of kanamycin A in presence of varying kanamycin A and in presence of fixed acetyl CoA level by DTNB based microplate reader analysis
[3] = Inhibition of AAC(6')-1b (unknown origin) expressed in Escherichia coli TOP10 assessed as reduction in acetylation of kanamycin A in presence of acetyl CoA by DTNB based microplate reader analysis
[4] = system: Acinetobacter baumannii; assay: Inhibition of AAC(6')-1b in amikacin-resistant Acinetobacter baumannii A155 harboring AAC(6')-1b assessed as growth inhibition at 100 uM in presence of 6 ug/ml amikacin
[5] = system: Klebsiella pneumoniae; assay: Inhibition of AAC(6')-1b in amikacin-resistant Klebsiella pneumoniae harboring AAC(6')-1b assessed as growth inhibition in presence of amikacin
[6] = Inhibition of AAC(6')-1b (unknown origin) expressed in Escherichia coli TOP10 assessed as reduction in acetylation of amikacin in presence of acetyl CoA by DTNB based microplate reader analysis
[7] = Uncompetitive inhibition of AAC(6')-1b (unknown origin) expressed in Escherichia coli TOP10 assessed as reduction in acetylation of kanamycin A in presence of varying acetyl CoA by DTNB based microplate reader analysis

SMILES: NCCc1cccc(CN2CCC(O)(CN3CCCCC3)C2)c1 (racemic)
- inhibition [1]: Active
- inhibition [2]: Active
- IC50 [3]: 39.7 µM
- inhibition [4]: Active
- growth inhibition (GI) [5]: inactive
- IC50 [6]: 34.9 µM
- inhibition [7]: Active
